Laboratory results published in patent publication US12214092B2, “Systems and methods for treating biological fluids” (Cerus Corporation, priority 2017, dated 2025).

Experiments:
[1] = Photochemical conversion of S-59 (150 μM) and photoproduct profile in plasma, PAS or PAS+plasma units, HPLC; format: physicochemical
feline calicivirus (FCV) = assay: Photochemical inactivation of FCV in platelets (35% plasma/65% PAS) with amotosalen and 340 nm UVA, plaque assay; format: cell-based
[2] = Amotosalen concentration in platelets in 100% plasma (75 μM/340 nm or 150 μM/INT-100), HPLC; format: physicochemical
[3] = Residual amotosalen after second illumination (two-wavelength treatment); format: physicochemical; conditions: 15 μM amotosalen, ~3 J/cm^2 each
Procedure: Additionally, any two or more wavelengths of narrow bandwidth light are evaluated in combination, such as for example, photochemical treatment of a biological fluid using amotosalen and ultraviolet light of a first peak wavelength and ultraviolet light of a second peak wavelength, sequentially or concurrently. More specifically, in one example pathogen inactivation of E. coli (Gram negative) and S. epidermidis (Gram positive) bacteria was evaluated using amotosalen and the device with LEDs of wavelengths described in Example 8. […] The spiked plasma units were divided into control (no amotosalen+UV light) and treatment (with amotosalen) conditions, with amotosalen used at 15 μM concentration. The units were aliquoted into six-well plates (5 mL/well) for illumination. Pre-illumination samples were taken and control bacterial titers determined using standard colony forming unit assay. […] Data for pre-illumination titers, post-first illumination titer, post-second illumination titer, and post-treatment (after second illumination) residual amotosalen (S-59) are shown in the following Tables 40-41.

[4] = 65/35 PAS+Plasma, 340 nm LED ~3.6 J/cm^2
[5] = 65/35 PAS+Plasma, 365 nm LED ~3.6 J/cm^2

Cc1oc2c(C)c3oc(=O)cc(C)c3cc2c1COCCN [S-59, 3-(2-aminoethoxymethyl)-2,5,9-trimethylfuro[3,2-g]chromen-7-one]
% of input S-59 remaining [1, 4]: 9.1%
Post-illumination HPLC area counts [1, 4]: 1249
% of input S-59 remaining [1, 5]: 46.2%
Post-illumination HPLC area counts [1, 5]: 5889
% of input S-59 remaining ([1]; PAS, 340 nm LED ~3 J/cm^2): 13.4%
Post-illumination HPLC area counts ([1]; PAS, 340 nm LED ~3 J/cm^2): 1436
% of input S-59 remaining ([1]; PAS, 365 nm LED ~3 J/cm^2): 36.8%
Post-illumination HPLC area counts ([1]; PAS, 365 nm LED ~3 J/cm^2): 4118
% of input S-59 remaining ([1]; PAS, INT100 ~6.4 J/cm^2): 26.2%
Post-illumination HPLC area counts ([1]; PAS, INT100 ~6.4 J/cm^2): 2905
% of input S-59 remaining ([1]; Plasma, 340 nm LED ~6.4 J/cm^2): 33.1%
Post-illumination HPLC area counts ([1]; Plasma, 340 nm LED ~6.4 J/cm^2): 4957
% of input S-59 remaining ([1]; Plasma, 365 nm LED ~6.4 J/cm^2): 66.8%
Post-illumination HPLC area counts ([1]; Plasma, 365 nm LED ~6.4 J/cm^2): 9675
% of input S-59 remaining ([1]; Plasma, INT100 ~6.4 J/cm^2): 60.5%
Post-illumination HPLC area counts ([1]; Plasma, INT100 ~6.4 J/cm^2): 8513
Log inactivation (feline calicivirus (FCV); 15 μM, 4 hr incubation, 340 nm ~3 J/cm^2): 2.7 log PFU/mL
Log inactivation (feline calicivirus (FCV); 15 μM, 8 hr incubation, 340 nm ~3 J/cm^2): 4.2 log PFU/mL
Log inactivation (feline calicivirus (FCV); 15 μM, 8 hr, 340 nm ~3 J/cm^2 Top Only): 4.1 log PFU/mL
Log inactivation (feline calicivirus (FCV); 15 μM, 8 hr, 340 nm ~3 J/cm^2 Top/Bottom): 3.9 log PFU/mL
Log inactivation (feline calicivirus (FCV); 15 μM, 24 hr incubation, 340 nm ~3 J/cm^2): >5.6 log PFU/mL
Log inactivation (feline calicivirus (FCV); 15 μM, 24 hr, 340 nm ~3 J/cm^2 Top Only): >6.3 log PFU/mL
Log inactivation (feline calicivirus (FCV); 15 μM, 24 hr, 340 nm ~3 J/cm^2 Top/Bottom): >6.3 log PFU/mL
Log inactivation (feline calicivirus (FCV); 30 μM, 4 hr incubation, 340 nm ~3 J/cm^2): 4.0 log PFU/mL
Log inactivation (feline calicivirus (FCV); 30 μM, 8 hr incubation, 340 nm ~3 J/cm^2): >5.6 log PFU/mL
Log inactivation (feline calicivirus (FCV); 30 μM, 8 hr, 340 nm ~3 J/cm^2 Top Only): >6.3 log PFU/mL
Log inactivation (feline calicivirus (FCV); 30 μM, 8 hr, 340 nm ~3 J/cm^2 Top/Bottom): 6.3 log PFU/mL
Log inactivation (feline calicivirus (FCV); 30 μM, 24 hr incubation, 340 nm ~3 J/cm^2): >5.6 log PFU/mL
Log inactivation (feline calicivirus (FCV); 30 μM, 24 hr, 340 nm ~3 J/cm^2 Top Only): >6.3 log PFU/mL
Log inactivation (feline calicivirus (FCV); 30 μM, 24 hr, 340 nm ~3 J/cm^2 Top/Bottom): >6.3 log PFU/mL
Log inactivation (feline calicivirus (FCV); 90 μM, 4 hr incubation, 340 nm ~3 J/cm^2): >5.6 log PFU/mL
Log inactivation (feline calicivirus (FCV); 90 μM, 8 hr incubation, 340 nm ~3 J/cm^2): >5.6 log PFU/mL
Log inactivation (feline calicivirus (FCV); 90 μM, 24 hr incubation, 340 nm ~3 J/cm^2): >5.6 log PFU/mL
Log inactivation (feline calicivirus (FCV); 150 μM, 0 hr incubation, 340 nm, more than twice ~3 J/cm^2): 2.5 log PFU/mL
Log inactivation (feline calicivirus (FCV); 150 μM, 0 hr, 340 nm Top Only (1-sided)): 4.6 log PFU/mL
Log inactivation (feline calicivirus (FCV); 150 μM, 0 hr, 340 nm Top/Bottom (2-sided)): 3.5 log PFU/mL
% Residual S-59 ([2]; 340/~6.4 (75 μM input)): 2.5%
S-59 concentration ([2]; 340/~6.4 (75 μM input), Post-UVA): 2.4 µM
S-59 concentration ([2]; 340/~6.4 (75 μM input), Pre-UVA): 93.3 µM
% Residual S-59 ([2]; 340/~7.2 (75 μM input)): 2.0%
S-59 concentration ([2]; 340/~7.2 (75 μM input), Post-UVA): 1.9 µM
S-59 concentration ([2]; 340/~7.2 (75 μM input), Pre-UVA): 94.0 µM
S-59 concentration ([2]; INT-100 (150 μM input), Post-CAD): 0.2 µM
S-59 concentration ([2]; INT-100 (150 μM input), Pre-UVA): 173.2 µM
% Residual S-59 ([2]; INT-100 ~3.6 J/cm^2 (150 μM input)): 40.1%
S-59 concentration ([2]; INT-100 ~3.6 J/cm^2 (150 μM input), Post-UVA): 69.4 µM
S-59 ([3]; E. coli plasma, UV 1 265 nm then UV 2 325 nm): 4.76 µM
S-59 ([3]; E. coli plasma, UV 1 265 nm then UV 2 340 nm): 3.89 µM
S-59 ([3]; E. coli plasma, UV 1 265 nm then UV 2 365 nm): 8.07 µM
S-59 ([3]; E. coli plasma, UV 1 280 nm then UV 2 325 nm): 4.44 µM
S-59 ([3]; E. coli plasma, UV 1 280 nm then UV 2 340 nm): 3.62 µM
S-59 ([3]; E. coli plasma, UV 1 280 nm then UV 2 365 nm): 7.96 µM
S-59 ([3]; E. coli plasma, UV 1 325 nm then UV 2 265 nm): 4.88 µM
S-59 ([3]; E. coli plasma, UV 1 325 nm then UV 2 280 nm): 4.66 µM
S-59 ([3]; E. coli plasma, UV 1 340 nm then UV 2 265 nm): 4.43 µM
S-59 ([3]; E. coli plasma, UV 1 340 nm then UV 2 280 nm): 4.46 µM
S-59 ([3]; E. coli plasma, UV 1 365 nm then UV 2 265 nm): 8.13 µM
S-59 ([3]; E. coli plasma, UV 1 365 nm then UV 2 280 nm): 8.00 µM
S-59 ([3]; S. epidermidis plasma, Light 1 265 nm then Light 2 325 nm): 4.82 µM
S-59 ([3]; S. epidermidis plasma, Light 1 265 nm then Light 2 340 nm): 3.93 µM
S-59 ([3]; S. epidermidis plasma, Light 1 265 nm then Light 2 365 nm): 8.17 µM
S-59 ([3]; S. epidermidis plasma, Light 1 280 nm then Light 2 325 nm): 4.50 µM
S-59 ([3]; S. epidermidis plasma, Light 1 280 nm then Light 2 340 nm): 3.77 µM
S-59 ([3]; S. epidermidis plasma, Light 1 280 nm then Light 2 365 nm): 8.01 µM
S-59 ([3]; S. epidermidis plasma, Light 1 325 nm then Light 2 265 nm): 4.92 µM
S-59 ([3]; S. epidermidis plasma, Light 1 325 nm then Light 2 280 nm): 4.63 µM
S-59 ([3]; S. epidermidis plasma, Light 1 340 nm then Light 2 265 nm): 4.47 µM
S-59 ([3]; S. epidermidis plasma, Light 1 340 nm then Light 2 280 nm): 4.46 µM
S-59 ([3]; S. epidermidis plasma, Light 1 365 nm then Light 2 265 nm): 8.39 µM
S-59 ([3]; S. epidermidis plasma, Light 1 365 nm then Light 2 280 nm): 8.07 µM
